This note sets out measurements from US20150296788A1, “PESTICIDALLY ACTIVE TRICYCLIC PYRIDYL DERIVATIVES” (SYNGENTA PARTICIPATIONS AG, priority 2012, published 2015).

In general, mortality refers to the share of the test organisms that died. The low end stands for a weak lethal effect, the high end for a strong lethal effect.

Type in all cases: in vivo
In test [1] the test system is Myzus persicae (Green Peach Aphid). The test is described as follows: Activity against Myzus persicae (green peach aphid), leaf disc, feeding/residual contact, preventive. As to conditions: foliar, 144 h, sunflower leaf discs sprayed, mixed-age aphid population, 6 days incubation. The procedure: Activity Against Myzus persicae (Green Peach Aphid)
(Mixed Population, Feeding/Residual Contact Activity, Preventive)
Sunflower leaf discs were placed on agar in a 24-well microtiter plate and sprayed with test solutions. After drying, the leaf discs were infested with an aphid population of mixed ages. After an incubation period of 6 days, samples were checked for mortality.

In test [2] the test system is Bemisia tabaci (Cotton White Fly). Put plainly: Activity against Bemisia tabaci (cotton white fly), leaf disc, feeding/residual contact, preventive. As to conditions: foliar, 144 h, cotton leaf discs sprayed, 12 to 18 adults, 6 days after infestation. The method, then: Activity Against Bemisia tabaci (Cotton White Fly)
(Feeding/Residual Contact Activity, Preventive)
Cotton leaf discs were placed on agar in a 24-well microtiter plate and sprayed with test solutions. After drying, the leaf discs were infested with 12 to 18 adults. After an incubation period of 6 days after infestation, samples were checked for mortality and special effects (e.g. phytotoxicity).

Test [3] concerns Frankliniella occidentalis (Western Flower Thrips). Put plainly: Activity against Frankliniella occidentalis (western flower thrips), leaf disc, feeding/residual contact, preventative. As to conditions: foliar, 168 h, sunflower leaf discs sprayed, mixed-age population, 7 DAT. The method, then: Activity Against Frankliniella occidentalis (Western Flower Thrips)
(Mixed Population, Feeding/Residual Contact Activity, Preventative)
Sunflower leaf discs are placed on agar in a 24-well microtiter plate and sprayed with test solutions. After drying, the leaf discs are infested with a Frankliniella population of mixed ages. After an incubation period of 7 DAT, samples are checked for mortality and special effects (e.g. phytotoxicity).

With `c1cncc(-n2cc(-c3ccc4c(n3)-c3ncncc3CC4)cn2)c1` [Compound 1.001, 9-[1-(3-pyridyl)pyrazol-4-yl]-5,6-dihydropyrido[3,2-h]quinazoline], the mortality at 200 ppm in test [1] and in test [2] was over 80% each time.

For `CN1c2ccc(-c3cnn(-c4cccnc4)c3)nc2-c2ncncc2S1(=O)=O` [Compound 1.003, 9-methyl-6-(1-pyridin-3-yl-1H-pyrazol-4-yl)-9H-10-thia-2,4,5,9-tetraaza-phenanthrene 10,10-dioxide], the mortality at 200 ppm in test [3] and in test [1] was over 80% throughout.

Consider `CN1c2ccc(-c3cnn(-c4cccnc4)c3)nc2-c2[nH]ncc2S1(=O)=O` [Compound 1.004, 5-methyl-8-(1-pyridin-3-yl-1H-pyrazol-4-yl)-1,5-dihydro-4-thia-1,2,5,9-tetraaza-cyclopenta[a]naphthalene 4,4-dioxide], for which the mortality at 200 ppm in test [3], in test [1] and in test [2] was over 80% in each case.

As for `c1cncc(-n2cc(-c3ccc4c(n3)-c3n[nH]cc3CC4)cn2)c1` [Compound 1.002, 8-[1-(3-pyridyl)pyrazol-4-yl]-4,5-dihydro-2H-pyrazolo[4,3h]quinoline], the mortality at 200 ppm in test [1] and in test [2] was over 80% throughout.
